# Laboratory results taken from patent publication US20170367390A1, “USE OF ELLAGIC ACID DIHYDRATE IN FOOD PRODUCTS AND NUTRACEUTICALS” (HALO LIFE SCIENCE, LLC, priority 2014, published 2017).
# Legend:
# [1] = Saturation of test compound in 100% DMSO; format: physicochemical
# Procedure: General Procedure. For Examples 2 through 7, all test compounds of interest were initially dissolved in 100% DMSO. Estimated saturation occurred at approximately 4 mM for ellagic acid dihydrate. The saturated solution was diluted 1:10 in 1×PBS; creating a 100× stock solution of 400 μM ellagic acid dihydrate. Working concentrations (1×), 4 μM, and more dilute concentrations of ellagic acid dihydrate were created by 1:10 dilutions into 0.1% DMSO. The resulting six dilutions ranged from 4 μM to 0.04 nM. Dose curves were analyzed using either Harmony software on the Operetta (Perkin Elmer) or Excel (Microsoft) for flow cytometry, which was performed on a BD Accuri (BD Biosciences).
# [2] = system: p44/42 MAPK; experiment: p44/42 MAPK:Phos p44/42 MAPK ratio by immunocytochemistry, high-content imaging in C2C12; format: cell-based, mouse; details: serum starved C2C12, 30 minutes; 400 nM, 0.04 nM
# Procedure: Stimulation of AKT pathways and MAPK pathways in ellagic acid dihydrate, metformin, and insulin treated cell cultures was performed. Insulin stimulates glucose uptake into cells by increasing GLUT4 activation, and AKT, specifically phos-AKT, signaling alters GLUT4 translocation. […] Cellular assays were performed using mouse myoblast C2C12 cells. Relative protein levels of AKT:phos AKT and p44/42 MAPK:phos p44/42 MAPK were determined.
# Serum starved cells (1 hr) were treated for 30 minutes with each of the tested compounds. Ratios of phosphorylated to non-phosphorylated proteins were determined using immunocytochemistry labeling (anti-AKT, anti-Phos AKT; or anti-p44/42 MAPK, anti-Phos p44/42 MAPK) on a high-content imaging system (Operetta, Perkin Elmer) using the fluorescent signal of anti-rabbit Alexa 647. Increased phosphorylation is indicated as decrease in signal of AKT:Phos AKT ratio (log 2 scale) and p44/42 MAPK:Phos p44/42 MAPK ratio (log 2 scale) relative to vehicle treated cells.
# [3] = system: MEF cells; experiment: Glucose uptake, 2-NBDG labeling, high-content imaging (Operetta), MEFs; format: cell-based, mouse
# Procedure: Increased glucose uptake was indicated as increasing signal of 2-NBDG ([…]) in cells. Glucose uptake assays were carried out in a final incubation volume of 50 μl consisting of, 2-NBDG), (100 μM) in 1× Phosphate Buffered Saline w/Ca+, Mg+ (PBS++). The same buffer was used for washing cells. Insulin was used as a positive control. All testing compounds were prepared in 10% DMSO and diluted 1:100 for a final concentration of 0.1% DMSO (vehicle). Cells were culture to 70-90% confluence and then washed twice with PBS++. Cells were incubated for 30 minutes at 37° C. in PBS++. Nuclear stain, HCS CellMask stain (blue, Invitrogen), and/or testing compounds (ellagic acid dihydrate, insulin, or vehicle) were added. Cells were incubated for 30 min at 37° C. Cells were washed twice with PBS++ and incubated with 2-NBDG for 10 minutes. Cells were washed thrice with PBS++ and then imaged in PBS++. Alternatively, the final PBS wash was removed and cells were incubated with Accutase (Invitrogen) for 10 min at 37° C., neutralized with 10% FBS in 1×PBS, and analyzed by flow cytometry. An additional experiment was performed to measure glucose uptake in C2Cl2 cells exposed to metformin, insulin and ellagic acid dihydrate 2 (batch 2). FIG. 5C. Glucose uptake in ellagic acid dihydrate treated cell culture was measured and compared to glucose uptake under insulin or ellagic acid treatment. […] Flow cytometry results were run in triplicate with 1000 cells per batch.
# [4] = system: GLUT4-GFP; experiment: Localization of glucose transporter GLUT4-GFP, time-lapse confocal microscopy in C2C12; format: cell-based, mouse
# Procedure: Induction of glucose transporter, GLUT-4, in ellagic acid dihydrate treated cell cultures was studied. Cellular assays were performed using mouse myoblast C2C12 cells. The cells were infected with a fusion glucose transporter 4 green fluorescent protein (GLUT4-GFP). This protein allows the visualization of GLUT4 by imaging the GFP under fluorescent time-lapse microscopy. Frames were compiled to produce time-lapse images of cellular changes with no treatment or treatment with insulin. The localization of glucose transporter (GLUT4-GFP) was performed in final incubation volume of 505 μL, consisting of 500 μl of Hank's Buffer (Invitrogen) and 5 μl of tested compounds. Insulin was used as positive controls and vehicle (0.1% DMSO) as the negative control. All test compounds were prepared in 10% DMSO and diluted 1:100 for a final concentration of 0.1% DMSO (vehicle). The cells were rinsed in Hank's Buffer thrice and then incubated in Hank's Buffer at 37° C. for one hour. The test compounds were added (ellagic acid dihydrate, insulin, or vehicle) and the cells were imaged using laser-confocal microscopy (Leica TCS SP5 X) with FITC fluorescent filters to determine changes in GLUT4-GFP localization. Time-lapse images (TIF) were collected and post-processed using Image-J (NIH) for video construction.
smiles,measurement,setting,value
O.O.O=c1oc2c(O)c(O)cc3c(=O)oc4c(O)c(O)cc1c4c23 [ellagic acid dihydrate],Estimated saturation,[1],approximately 4 mM
same,p44/42 MAPK:Phos p44/42 MAPK ratio relative to vehicle,[2],increase in p44/42 MAPK
same,dose effect for increasing glucose uptake,[3],dose effect for increasing glucose uptake
same,glucose uptake (2-NBDG signal),"[3]; versus vehicle (Neg, 0.1% DMSO)","significantly greater than vehicle treated (Neg, 0.1% DMSO) or Insulin treated cells"
same,timing of GLUT4-GFP/membrane process compared with insulin,"[4]; C2C12, 4000 nM",slightly delayed
same,GLUT4-GFP localization,"[4]; C2C12, 4000 nM exposure",decrease in nuclear GLUT4-GFP
same,ruffling of filopodia at the surface of the cell,"[4]; C2C12, 4000 nM exposure",rapid ruffling of filopodia at the surface of the cell
